Test results: patent EP0641797A1, “Cephem derivatives and antimicrobial agents containing the same” (KATAYAMA SEIYAKUSYO CO. Ltd., priority 1993, dated 1995)
≈ marks a conversion by molar mass, not a printed value. Like-named read-outs stand apart in the source and are kept apart here.

Tests used:
Test in all cases: MIC on standard strains, standard method of Japan Society of Chemotherapy
Type in all cases: cell-based
[1] = system: A. calcoaceticos T59; details: read-out: MIC
Protocol: (§1) Antimicrobial activity of the compounds of the present invention were measured using CTM (cefotiam) and FMOX (flomoxef) as control drugs in accordance with the standard method of Japan Society of Chemotherapy. Of the 25 standard strains used in this test, Staphylococcus aureus 167 and Staphylococcus aureus 195 belong to MRSA.
(§2) In these tables, drugs tested are shown by the corresponding examples in which they were synthesized.

[2] = system: A. faecalis ATCC 3750
Protocol: as §1, §2

[3] = system: B. subtilis ATCC 6633; details: Bacillus subtilis, ATCC6633, B. subtilis ATCC 6633; read-out: MIC
Protocol: as §1, §2

[4] = system: C. freundii ATCC 8090; details: Citrobacter freundii, ATCC8090, C. freundii ATCC 8090; read-out: MIC
Protocol: as §1, §2

[5] = system: E. cloacae ATCC 13407
Protocol: as §1, §2

[6] = system: E. cloacae Nek39; details: Enterobacter cloacae, NEK39, E. cloacae Nek39; read-out: MIC
Protocol: as §1, §2

[7] = system: E. coli CSH2(RE45)
Protocol: as §1, §2

[8] = system: E. coli CSH2(RK1); details: Escherichia coli
Protocol: as §1, §2

[9] = system: E. coli NHIJ JC-2; details: Escherichia coli, NHIJJC2
Protocol: as §1, §2

[10] = system: K. pneuminiae IFO 3317
Protocol: as §1, §2

[11] = system: K. pneuminiae No. 42
Protocol: as §1, §2

[12] = system: M. luteus ATCC 9341; details: Micrococcus luteus, ATCC9341
Protocol: as §1, §2

[13] = system: M. morganii IFO 3848; details: Morganella morganii, IFO3848
Protocol: as §1, §2

[14] = system: P. aeruginosa AKR17; details: Pseudomonas aeruginosa
Protocol: as §1, §2

[15] = system: P. aeruginosa NCTC 10490
Protocol: as §1, §2

[16] = system: P. cepacia; details: Burkholderia cepacia, read-out: MIC
Protocol: as §1, §2

[17] = system: P. mirabilis IFO 3849
Protocol: as §1, §2

[18] = system: P. vulugaris OX-19
Protocol: as §1, §2

[19] = system: S. aureus 167; details: Staphylococcus aureus; S. aureus 167 (MRSA)
Protocol: as §1, §2

[20] = system: S. aureus 195; details: Staphylococcus aureus; S. aureus 195 (MRSA)
Protocol: as §1, §2

[21] = system: S. aureus 209p JC-1
Protocol: as §1, §2

[22] = system: S. aureus Smith
Protocol: as §1, §2

[23] = system: S. epidemidis IAM 1296
Protocol: as §1, §2

[24] = system: S. marcescens IAM 1184
Protocol: as §1, §2

[25] = system: S. marcescens No. 16-2; details: Serratia marcescens, NO.162
Protocol: as §1, §2

[26] = Alcaligenes faecalis, ATCC3750, A. faecalis ATCC 3750, read-out: MIC
[27] = Enterobacter cloacae, ATCC13407, E. cloacae ATCC 13407, read-out: MIC
[28] = Pseudomonas aeruginosa, NCTC10490, P. aeruginosa NCTC 10490, read-out: MIC
[29] = Proteus mirabilis, IFO3849, P. mirabilis IFO 3849, read-out: MIC
[30] = Staphylococcus aureus, 209P, read-out: MIC
[31] = Staphylococcus aureus, read-out: MIC
[32] = Serratia marcescens, IAM1184, S. marcescens IAM 1184, read-out: MIC

| SMILES | MIC [1] | MIC [2, 26] | MIC [3] | MIC [4] | MIC [5, 27] | MIC [6] | MIC ([7]; Escherichia coli) | MIC [8] | MIC [9] | MIC [10] | MIC [11] | MIC [12] | MIC [13] | MIC [14] | MIC [15, 28] | MIC [16] | MIC [17, 29] | MIC [18] | MIC [19] | MIC [20] | also measured |
| --- | --- | --- | --- | --- | --- | --- | --- | --- | --- | --- | --- | --- | --- | --- | --- | --- | --- | --- | --- | --- | --- |
| CN(C)CCn1nnnc1SCC1=C(C(=O)O)N2C(=O)[C@@H](NC(=O)Cc3csc(N)n3)[C@H]2SC1 [CTM, cefotiam, reference compound] | > 100 µg/mL | 6.25 µg/mL (≈ 11.9 µM) | 0.39 µg/mL (≈ 0.742 µM) | 0.78 µg/mL (≈ 1.48 µM) | 50 µg/mL (≈ 95.1 µM) | > 100 µg/mL | 0.2 µg/mL (≈ 0.38 µM) | 0.2 µg/mL (≈ 0.38 µM) | 0.2 µg/mL (≈ 0.38 µM) | 0.2 µg/mL (≈ 0.38 µM) | 0.39 µg/mL (≈ 0.742 µM) | 0.39 µg/mL (≈ 0.742 µM) | 0.2 µg/mL (≈ 0.38 µM) | > 100 µg/mL | > 100 µg/mL | > 100 µg/mL | 0.78 µg/mL (≈ 1.48 µM) | 0.39 µg/mL (≈ 0.742 µM) | > 100 µg/mL | > 100 µg/mL | MIC ([2]; A. faecalis ATCC 3750): 3.13 µg/mL (≈ 5.95 µM); MIC ([5]; E. cloacae ATCC 13407): >100 µg/mL; MIC [7]: 0.39 µg/mL (≈ 0.742 µM); MIC ([15]; P. aeruginosa NCTC 10490): 100 µg/mL (≈ 190 µM); MIC ([17]; P. mirabilis IFO 3849): 0.39 µg/mL (≈ 0.742 µM); MIC [21]: 0.78 µg/mL (≈ 1.48 µM); MIC [21, 30]: 1.56 µg/mL (≈ 2.97 µM); MIC [22]: 0.78 µg/mL (≈ 1.48 µM); MIC [22, 31]: 1.56 µg/mL (≈ 2.97 µM); MIC [23]: 0.39 µg/mL (≈ 0.742 µM); MIC ([24]; S. marcescens IAM 1184): 3.13 µg/mL (≈ 5.95 µM); MIC [24, 32]: 6.25 µg/mL (≈ 11.9 µM); MIC [25]: > 100 µg/mL |
| NC(=O)Cc1ccc[n+](CC2=C(C(=O)[O-])N3C(=O)[C@@H](NC(=O)/C(=N\O)c4nsc(N)n4)[C@H]3SC2)c1 [Ex. 1, 7β-[2-(5-amino-1,2,4-thiadiazol-3-yl)-2-syn-hydroxyiminoacetamido]-3-(3-carbamoylmethylpyridinio)methyl-3-cephem-4-carboxylate] | 3.13 µg/mL (≈ 6.04 µM) | 6.25 µg/mL (≈ 12.1 µM) | 0.39 µg/mL (≈ 0.752 µM) | 1.56 µg/mL (≈ 3.01 µM) | 3.13 µg/mL (≈ 6.04 µM) | 100 µg/mL (≈ 193 µM) | 3.13 µg/mL (≈ 6.04 µM) | 3.13 µg/mL (≈ 6.04 µM) | 1.56 µg/mL (≈ 3.01 µM) | 0.78 µg/mL (≈ 1.5 µM) | 1.56 µg/mL (≈ 3.01 µM) | 0.2 µg/mL (≈ 0.386 µM) | 1.56 µg/mL (≈ 3.01 µM) | > 100 µg/mL | 0.78 µg/mL (≈ 1.5 µM) | > 100 µg/mL | 1.56 µg/mL (≈ 3.01 µM) | 3.13 µg/mL (≈ 6.04 µM) | 12.5 µg/mL (≈ 24.1 µM) | 12.5 µg/mL (≈ 24.1 µM) | MIC [21, 30]: 0.78 µg/mL (≈ 1.5 µM); MIC [22, 31]: 1.56 µg/mL (≈ 3.01 µM); MIC [23]: 0.39 µg/mL (≈ 0.752 µM); MIC [24, 32]: 0.78 µg/mL (≈ 1.5 µM); MIC [25]: > 100 µg/mL |
| NC(=O)Nc1ccc[n+](CC2=C(C(=O)[O-])N3C(=O)[C@@H](NC(=O)/C(=N\O)c4nsc(N)n4)[C@H]3SC2)c1 [Ex. 2, 7β-[2-(5-amino-1,2,4-thiadiazol-3-yl)-2-syn-hydroxyiminoacetamido]-3-(3-ureidopyridinio)methyl-3-cephem-4-carboxylate] | 1.56 µg/mL (≈ 3 µM) | 3.13 µg/mL (≈ 6.02 µM) | 0.39 µg/mL (≈ 0.751 µM) | 0.78 µg/mL (≈ 1.5 µM) | 6.25 µg/mL (≈ 12 µM) | 100 µg/mL (≈ 192 µM) | 0.78 µg/mL (≈ 1.5 µM) | 1.56 µg/mL (≈ 3 µM) | 0.78 µg/mL (≈ 1.5 µM) | 0.39 µg/mL (≈ 0.751 µM) | 0.78 µg/mL (≈ 1.5 µM) | 0.05 µg/mL (≈ 0.0962 µM) | 0.78 µg/mL (≈ 1.5 µM) | > 100 µg/mL | 0.78 µg/mL (≈ 1.5 µM) | > 100 µg/mL | 1.56 µg/mL (≈ 3 µM) | 1.56 µg/mL (≈ 3 µM) | 6.25 µg/mL (≈ 12 µM) | 3.13 µg/mL (≈ 6.02 µM) | MIC [21, 30]: 0.39 µg/mL (≈ 0.751 µM); MIC [22, 31]: 0.78 µg/mL (≈ 1.5 µM); MIC [23]: 0.2 µg/mL (≈ 0.385 µM); MIC [24, 32]: 0.39 µg/mL (≈ 0.751 µM); MIC [25]: 100 µg/mL (≈ 192 µM) |
| Nc1nc(/C(=N/O)C(=O)N[C@@H]2C(=O)N3C(C(=O)[O-])=C(C[n+]4cccc(-c5ncno5)c4)CS[C@H]23)ns1 [Ex. 5, 7β-[2-(5-amino-1,2,4-thiadiazol-3-yl)-2-syn-hydroxyiminoacetamido]-3-[3-(1,2,4-oxadiazol-5-yl)pyridinio]methyl-3-cephem-4-carboxylate] | 12.5 µg/mL (≈ 23.6 µM) | 12.5 µg/mL (≈ 23.6 µM) | 0.78 µg/mL (≈ 1.47 µM) | 6.25 µg/mL (≈ 11.8 µM) | 25 µg/mL (≈ 47.2 µM) | 100 µg/mL (≈ 189 µM) | 6.25 µg/mL (≈ 11.8 µM) | 12.5 µg/mL (≈ 23.6 µM) | 6.25 µg/mL (≈ 11.8 µM) | 3.13 µg/mL (≈ 5.91 µM) | 6.25 µg/mL (≈ 11.8 µM) | 0.39 µg/mL (≈ 0.737 µM) | 3.13 µg/mL (≈ 5.91 µM) | > 100 µg/mL | 3.13 µg/mL (≈ 5.91 µM) | > 100 µg/mL | 3.13 µg/mL (≈ 5.91 µM) | 6.25 µg/mL (≈ 11.8 µM) | 50 µg/mL (≈ 94.4 µM) | 50 µg/mL (≈ 94.4 µM) | MIC [21, 30]: 1.56 µg/mL (≈ 2.95 µM); MIC [22, 31]: 3.13 µg/mL (≈ 5.91 µM); MIC [23]: 0.78 µg/mL (≈ 1.47 µM); MIC [24, 32]: 6.25 µg/mL (≈ 11.8 µM); MIC [25]: > 100 µg/mL |
| Nc1nc(/C(=N/O)C(=O)N[C@@H]2C(=O)N3C(C(=O)[O-])=C(C[n+]4ccc(-c5ncno5)cc4)CS[C@H]23)ns1 [Ex. 6, 7β-[2-(5-amino-1,2,4-thiadiazol-3-yl)-2-syn-hydroxyiminoacetamido]-3-[4-(1,2,4-oxadiazol-5-yl)pyridinio]methyl-3-cephem-4-carboxylate] | 6.25 µg/mL (≈ 11.8 µM) | 3.13 µg/mL (≈ 5.91 µM) | 0.39 µg/mL (≈ 0.737 µM) | 0.78 µg/mL (≈ 1.47 µM) | 6.25 µg/mL (≈ 11.8 µM) | 50 µg/mL (≈ 94.4 µM) | 0.78 µg/mL (≈ 1.47 µM) | 1.56 µg/mL (≈ 2.95 µM) | 0.78 µg/mL (≈ 1.47 µM) | 0.39 µg/mL (≈ 0.737 µM) | 1.56 µg/mL (≈ 2.95 µM) | 0.1 µg/mL (≈ 0.189 µM) | 0.39 µg/mL (≈ 0.737 µM) | > 100 µg/mL | 0.78 µg/mL (≈ 1.47 µM) | > 100 µg/mL | 0.78 µg/mL (≈ 1.47 µM) | 1.56 µg/mL (≈ 2.95 µM) | 12.5 µg/mL (≈ 23.6 µM) | 6.25 µg/mL (≈ 11.8 µM) | MIC [21, 30]: 0.78 µg/mL (≈ 1.47 µM); MIC [22, 31]: 1.56 µg/mL (≈ 2.95 µM); MIC [23]: 0.39 µg/mL (≈ 0.737 µM); MIC [24, 32]: 0.78 µg/mL (≈ 1.47 µM); MIC [25]: > 100 µg/mL |
